Measured values from US20250230193A1, “CYCLIC COMPOUND HAVING SELECTIVE KRAS INHIBITORY EFFECT ON HRAS AND NRAS” (CHUGAI SEIYAKU KABUSHIKI KAISHA, priority 2022, published 2025).
Where a SMILES comes first, the peptide text is derived from it. Bridges are numbered along the chain shown (N, C = ends). [ ]: non-standard residue; d: D form. The star is where a group is joined. hPhe(3-Cl-4-CF3) = N[C@@H](CCc1ccc(C(F)(F)F)c(Cl)c1)C(=O)O; NPrPhe(4-CF3) = CCCN[C@@H](Cc1ccc(C(F)(F)F)cc1)C(=O)O; 3Oxa8azabicyclo(3.2.1)octane = C1CC2COCC1N2*; NEtPhe(4-Me) = CCN[C@@H](Cc1ccc(C)cc1)C(=O)O; NMeGly(cPent) = CN[C@H](C(=O)O)C1CCCC1; Pro(4,4-F2) = O=C(O)[C@@H]1CC(F)(F)CN1; NMeI = CC[C@H](C)[C@H](NC)C(=O)O; NMeD = CN[C@@H](CC(=O)O)C(=O)O; NMeL = CN[C@@H](CC(C)C)C(=O)O; Morpholide = C1CN(*)CCO1; Ac5c = NC1(C(=O)O)CCCC1; Sar = CNCC(=O)O

Key:
[1] = target: GDP-bound NRAS wild-type protein (Homo sapiens, UniProt P01111); assay: Binding to NRAS by surface plasmon resonance (SPR), Single Cycle Kinetics
GDP-bound NRAS wild-type protein, sequence (P01111 whole entry): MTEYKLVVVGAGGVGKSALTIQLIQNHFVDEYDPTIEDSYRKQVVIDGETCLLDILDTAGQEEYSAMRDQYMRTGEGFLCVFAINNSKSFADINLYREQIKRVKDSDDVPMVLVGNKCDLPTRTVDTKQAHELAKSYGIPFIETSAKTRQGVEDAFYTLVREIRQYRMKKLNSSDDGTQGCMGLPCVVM

[2] = target: GDP-bound HRAS wild-type protein (Homo sapiens, UniProt P01112); assay: Binding to HRAS by surface plasmon resonance (SPR), Single Cycle Kinetics
GDP-bound HRAS wild-type protein, sequence (P01112 whole entry): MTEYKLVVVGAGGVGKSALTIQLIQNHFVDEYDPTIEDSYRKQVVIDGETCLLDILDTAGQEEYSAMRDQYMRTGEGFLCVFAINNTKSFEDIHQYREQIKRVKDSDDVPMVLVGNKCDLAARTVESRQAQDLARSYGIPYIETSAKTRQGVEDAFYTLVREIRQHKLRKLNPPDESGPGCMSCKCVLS

[3] = KD ratio, GDP-bound NRAS wild-type vs GDP-bound KRAS wild-type, SPR
[4] = KD ratio, GDP-bound HRAS wild-type vs GDP-bound KRAS wild-type, SPR
[5] = SPR, GDP-bound wild-type proteins

CC[C@H](C)[C@@H]1NC(=O)[C@H](CC(C)C)N(C)C(=O)C[C@@H](C(=O)N2CCOCC2)N(C)C(=O)[C@H](C2CCCC2)NC(=O)C2(CCCC2)NC(=O)[C@@H]2CCCN2C(=O)[C@H](CCc2cc(F)c(C(F)(F)F)c(F)c2)NC(=O)CN(C)C(=O)[C@H](Cc2ccc(C(F)(F)F)cc2)N2CCCC[C@@H](C2=O)N(C)C(=O)CN(C)C1=O [PP0540]
NRAS/KRAS (ratio of KD value with respect to GDP-bound NRAS wild-type protein to KD value with respect to KRAS) ([1]; SPR): B (a compound having 3 or more and less than 10 is denoted as B) | HRAS/KRAS (ratio of KD value with respect to GDP-bound HRAS wild-type protein to KD value with respect to KRAS) ([2]; SPR): B (a compound having 3 or more and less than 10 is denoted as B)

CCO[C@@H]1C[C@H]2C(=O)NC3(CCC3)C(=O)N(C)[C@@H](C3CCCC3)C(=O)N(C)[C@H](C(=O)N(C)C)CC(=O)N(C)[C@@H](Cc3ccccc3C)C(=O)N[C@@H]([C@@H](C)CC)C(=O)N(C)CC(=O)N(C)[C@H]3CCCCCN(C3=O)[C@@H](Cc3ccc(C(F)(F)F)cc3)C(=O)N(C)CC(=O)N[C@@H](CCc3cc(F)c(C(F)(F)F)c(F)c3)C(=O)N2C1 [PP0941]
NRAS/KRAS (ratio of KD value with respect to NRAS to KD value with respect to KRAS) [1, 3]: B (a compound having 3 or more and less than 10 is denoted as B) | HRAS/KRAS (ratio of KD value with respect to HRAS to KD value with respect to KRAS) [2, 4]: B (a compound having 3 or more and less than 10 is denoted as B)

CCO[C@@H]1C[C@H]2C(=O)NC3(CC(C)(C)C3)C(=O)N(C)[C@@H](C3CCCC3)C(=O)N(C)[C@H](C(=O)N(C)CC)CC(=O)N(C)[C@H]3C/C=C/c4ccc(cc4)C[C@@H](C(=O)N(C)CC(=O)N[C@@H](CCc4ccc(Cl)c(Cl)c4)C(=O)N2C1)N1CC/C=C\C[C@@H](C1=O)N(C)C(=O)CN(C)C(=O)[C@H]([C@@H](C)CC)NC3=O [PP3056]
NRAS/KRAS (ratio of KD value with respect to GDP-bound NRAS wild-type protein to KD value with respect to KRAS) [1, 5]: A (a compound having 10 or more and less than 20 is denoted as A) | HRAS/KRAS (ratio of KD value with respect to GDP-bound HRAS wild-type protein to KD value with respect to KRAS) [2, 5]: A (a compound having 10 or more and less than 20 is denoted as A)

CCO[C@@H]1C[C@H]2C(=O)NC3(CC(C)(C)C3)C(=O)N(C)[C@@H](C(CC)CC)C(=O)N(C)[C@H](C(=O)N3CCCC3)CC(=O)N(C)[C@H]3CCC/C=C/c4ccc(cc4)C[C@@H](C(=O)N(C)CC(=O)N[C@@H](CCc4cc(F)c(C(F)(F)F)c(F)c4)C(=O)N2C1)N1CC/C=C\C[C@@H](C1=O)N(C)C(=O)CN(C)C(=O)[C@H]([C@@H](C)CC)NC3=O [PP2576]
NRAS/KRAS (ratio of KD value with respect to GDP-bound NRAS wild-type protein to KD value with respect to KRAS) ([1]; class symbols): A (a compound having 10 or more and less than 20 is denoted as A) | HRAS/KRAS (ratio of KD value with respect to GDP-bound HRAS wild-type protein to KD value with respect to KRAS) ([2]; class symbols): A (a compound having 10 or more and less than 20 is denoted as A)

CCCN1C(=O)CN(C)C(=O)CNC(=O)[C@H]([C@@H](C)CC)NC(=O)[C@H](CC(C)C)N(C)C(=O)C[C@@H](C(=O)N2CCOCC2)N(C)C(=O)[C@H](C2CCCC2)N(C)C(=O)C2(CCCC2)NC(=O)[C@@H]2CC(F)(F)CN2C(=O)[C@H](CCc2ccc(C(F)(F)F)c(Cl)c2)NC(=O)CN(C)C(=O)[C@@H]1Cc1ccc(C(F)(F)F)cc1 [PP0394] ([NMeL]IG[Sar][NPrPhe(4-CF3)][Sar][hPhe(3-Cl-4-CF3)][Pro(4,4-F2)][Ac5c][NMeGly(cPent)][NMeD]-Morpholide; lactam N-11)
NRAS/KRAS (ratio of KD for GDP-bound NRAS wild-type to KD for KRAS) ([1]; SPR): C (A compound having a KD ratio of 0.1 or more and less than 3 is denoted as C) | HRAS/KRAS (ratio of KD for GDP-bound HRAS wild-type to KD for KRAS) ([2]; SPR): C (A compound having a KD ratio of 0.1 or more and less than 3 is denoted as C)

CCCN1C(=O)CN(C)C(=O)CN(C)C(=O)[C@H]([C@@H](C)CC)NC(=O)[C@H](CC(C)C)N(C)C(=O)C[C@@H](C(=O)N2CCOCC2)N(C)C(=O)[C@H]([C@@H](C)CC)N(C)C(=O)C2(CCCC2)NC(=O)[C@@H]2CCCN2C(=O)[C@H](CCc2ccc(C(F)(F)F)c(Cl)c2)NC(=O)CN(C)C(=O)[C@@H]1Cc1ccc(C(F)(F)F)cc1 [PP1926] ([NMeL]I[Sar][Sar][NPrPhe(4-CF3)][Sar][hPhe(3-Cl-4-CF3)]P[Ac5c][NMeI][NMeD]-Morpholide; lactam N-11)
NRAS/KRAS (ratio of KD value for NRAS to KD value for KRAS) [1, 3]: B (a compound having 3 or more and less than 10 is denoted as B) | HRAS/KRAS (ratio of KD value for HRAS to KD value for KRAS) [2, 4]: B (a compound having 3 or more and less than 10 is denoted as B)

CC[C@H](C)[C@@H]1NC(=O)[C@H](CC(C)C)N(C)C(=O)C[C@@H](C(=O)N2C3CCC2COC3)N(C)C(=O)[C@H](C2CCCC2)N(C)C(=O)C2(CCCC2)NC(=O)[C@@H]2CCCN2C(=O)[C@H](CCc2ccc(C(F)(F)F)c(Cl)c2)NC(=O)CN(C)C(=O)[C@H](Cc2ccc(C)cc2)N(CC)C(=O)CN(C)C(=O)CN(C)C1=O [PP0051] ([NMeL]I[Sar][Sar][NEtPhe(4-Me)][Sar][hPhe(3-Cl-4-CF3)]P[Ac5c][NMeGly(cPent)][NMeD]-{3Oxa8azabicyclo(3.2.1)octane}; lactam N-11)
NRAS/KRAS (ratio of KD for GDP-bound NRAS wild-type to KD for KRAS) ([1]; SPR): C (A compound having a KD ratio of 0.1 or more and less than 3 is denoted as C) | HRAS/KRAS (ratio of KD for GDP-bound HRAS wild-type to KD for KRAS) ([2]; SPR): C (A compound having a KD ratio of 0.1 or more and less than 3 is denoted as C)
